The values below come from ChEMBL document CHEMBL1201862, “PubChem BioAssay data set” (2004).

Structures are written as SMILES.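 These data come from cells grown in 96-well plates and exposed to compound for 48 hours at five concentrations. Here, GI50 denotes the concentration required for 50% inhibition of growth.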 The source made the active and inactive calls. Rule as the data show it: active = GI50 up to about 1.1 µM and inactive = higher. Some results are limits rather than exact numbers.

Test systems include DMS-273; EKVX; CAKI-1; SK-OV-3; HCT-116; TK-10; ACHN; HT-29; XF498; SW-620; OVCAR-4; HCT-15; UACC-62; CCRF-CEM; COLO 205; SF-539; RXF 393; DU-145; MCF7; MDA-N.
Common to all, as to experiment: DTP human tumour cell line panel, 48 h

On to `CC(C)COC(=O)N1N=NC2C3OC(CC3=O)C21` (stereo not drawn), for which the GI50 – broadly, the concentration giving 50% growth inhibition – is > 100 µM (inactive) in the assay with DMS-273; > 100 µM (inactive) in the assay on EKVX; > 100 µM (inactive) in the assay with CAKI-1; 40.4 µM (inactive) in the assay on SK-OV-3; > 100 µM (inactive) with HCT-116; > 100 µM (inactive) in the assay on TK-10. In addition, the GI50 was > 100 µM (inactive) with ACHN; > 100 µM (inactive) with HT-29; > 100 µM (inactive) in the assay on XF498; > 100 µM (inactive) in the assay with SW-620; > 100 µM (inactive) with OVCAR-4; > 100 µM with HCT-15. Further, the GI50 was 43.6 µM (inactive) with UACC-62; > 100 µM (inactive) with CCRF-CEM; > 100 µM (inactive) in the assay with COLO 205; > 100 µM (inactive) in the assay with SF-539; > 100 µM (inactive) with RXF 393.
In the case of `COc1ccc(C2C(C)C(=O)C(C)C(c3ccc(OC)cc3)N2N=O)cc1` (stereo not drawn), the GI50 is 213 µM (inactive) in the assay on DU-145; > 514 µM (inactive) in the assay with DMS-273; > 830 µM (inactive) with EKVX; 246 µM (inactive) in the assay with CAKI-1; 257 µM (inactive) with SK-OV-3; 372 µM (inactive) in the assay with MCF7. In addition, the GI50 was 127 µM (inactive) in the assay with HCT-116; 90.6 µM (inactive) in the assay with TK-10; 175 µM (inactive) in the assay with ACHN; > 738 µM (inactive) with HT-29; 166 µM (inactive) in the assay on XF498; > 1000 µM (inactive) with SW-620. Besides, the GI50 is > 479 µM (inactive) in the assay on OVCAR-4; > 1000 µM in the assay with HCT-15; > 506 µM (inactive) with UACC-62; > 700 µM (inactive) with CCRF-CEM; > 550 µM (inactive) in the assay with COLO 205; 163 µM (inactive) with MDA-N. Also, the GI50 was > 75.5 µM (inactive) with SF-539 and 40.3 µM (inactive) with RXF 393.
Turning to `COC1N(C2CC(O)C(CO)O2)C(=O)NC(=O)C1(F)Br` (stereo not drawn), the GI50 in the assay on DU-145 is 4.72 µM (inactive); in the assay on DMS-273 it was 14.7 µM (inactive); with EKVX it was 67.1 µM (inactive); in the assay on CAKI-1 it was > 19.9 µM (inactive); with SK-OV-3, > 50 µM (inactive); in the assay with MCF7 it was 0.52 µM (active). Also, the GI50 is 7.8 µM (inactive) with HCT-116; > 100 µM (inactive) in the assay on TK-10; 1.88 µM (inactive) with ACHN; 20 µM (inactive) in the assay on HT-29; 17.3 µM (inactive) in the assay on XF498; 32.8 µM (inactive) with SW-620. In addition, the GI50 is > 50 µM (inactive) in the assay on OVCAR-4; 13.4 µM in the assay on HCT-15; 4.27 µM (inactive) in the assay with UACC-62; 3.53 µM (inactive) in the assay on CCRF-CEM; 21.6 µM (inactive) in the assay with COLO 205; 18.7 µM (inactive) in the assay on MDA-N. Moreover, the GI50 in the assay on SF-539 is 0.239 µM (active); with RXF 393 it was 46.7 µM (inactive).
`O=C(NC12CC3CC(CC(C3)C1)C2)C(=O)c1c[nH]c2ccc([N+](=O)[O-])cc12`: the GI50 in the assay with DMS-273 is 5.66 µM (inactive); in the assay on EKVX it was 97.3 µM (inactive); in the assay with CAKI-1, 65.9 µM (inactive); in the assay on SK-OV-3, 76.6 µM (inactive); in the assay on HCT-116, 18.7 µM (inactive); with TK-10 it was 24.9 µM (inactive). The GI50 in the assay with ACHN was 90.4 µM (inactive); with HT-29 it was > 44.4 µM (inactive); in the assay with XF498 it was 18.2 µM (inactive); in the assay with SW-620, 31.7 µM (inactive); with OVCAR-4, 7.59 µM (inactive); in the assay on HCT-15 it was > 78.9 µM. For the same molecule, the GI50 in the assay on UACC-62 was 19.1 µM (inactive); in the assay on CCRF-CEM, > 44.9 µM (inactive); with COLO 205 it was 24.5 µM (inactive); with SF-539, 46.1 µM (inactive); in the assay on RXF 393, 21.1 µM (inactive).
`CC(=O)O[C@H]1C(=O)[C@@]2(C)[C@H]([C@H](OC(=O)c3ccccc3)[C@]3(O)C[C@H](OC(=O)[C@H](O)[C@@H](NC(=O)c4ccccc4)c4ccccc4)C(C)=C1C3(C)C)[C@]1(OC(C)=O)CO[C@@H]1C[C@@H]2O` [PACLITAXEL]: the GI50 was 0.0239 µM (active) in the assay with DU-145; 0.00313 µM (active) in the assay on DMS-273; 0.203 µM (active) with CAKI-1; 0.00881 µM (active) in the assay on SK-OV-3; 0.00292 µM (active) with MCF7; 0.00268 µM (active) with HCT-116. In addition, the GI50 in the assay with TK-10 is 0.113 µM (active); in the assay on ACHN, 0.661 µM (active); in the assay on HT-29 it was 0.00273 µM (active); with XF498, 0.00348 µM (active); with SW-620, 0.00326 µM (active); in the assay with OVCAR-4 it was 0.486 µM (active). Further, the 50% growth inhibitory concentration (GI50) was 0.00419 µM (active) with UACC-62; 0.00267 µM (active) in the assay on CCRF-CEM; 0.00303 µM (active) with COLO 205; 0.00307 µM (active) in the assay on MDA-N; 0.00373 µM (active) in the assay with SF-539; 0.00649 µM (active) in the assay with RXF 393.
As to `Nc1ncc(CN2CCCC2)c(-c2ccccc2O)n1`, the GI50 with DMS-273 is > 750 µM (inactive); in the assay on EKVX it was > 100 µM (inactive); with CAKI-1 it was > 750 µM (inactive); with SK-OV-3, > 750 µM (inactive); in the assay with MCF7, > 100 µM (inactive); with HCT-116 it was > 750 µM (inactive). Further, the GI50 in the assay with TK-10, in the assay with ACHN, in the assay with HT-29, in the assay on XF498, with SW-620 and in the assay on OVCAR-4 was > 750 µM (inactive) throughout. The GI50 was > 750 µM with HCT-15; > 750 µM (inactive) in the assay on UACC-62; 8.39 µM (inactive) in the assay on CCRF-CEM; > 750 µM (inactive) with COLO 205; > 750 µM (inactive) in the assay on SF-539; > 750 µM (inactive) in the assay with RXF 393.
Turning to `CC(C)C12C=CC(C)(CC1)n1c(=O)c3cc4ccccc4cc3c(=O)n12` (stereo not drawn), the GI50 was 40.6 µM (inactive) with DMS-273; 43.5 µM (inactive) with EKVX; 87.9 µM (inactive) in the assay on CAKI-1; 52.1 µM (inactive) in the assay on SK-OV-3; 47.2 µM (inactive) in the assay on HCT-116; 29.9 µM (inactive) with TK-10. Also, the GI50 with ACHN was 36.4 µM (inactive); in the assay with HT-29 it was 45.1 µM (inactive); in the assay with XF498, 26.4 µM (inactive); with SW-620, 60.1 µM (inactive); in the assay with OVCAR-4, 43.9 µM (inactive); with HCT-15, 33.3 µM. In addition, the GI50 in the assay with CCRF-CEM was 43.1 µM (inactive); in the assay on COLO 205, 41.9 µM (inactive); with SF-539 it was 66.7 µM (inactive); in the assay on RXF 393 it was > 100 µM (inactive).
As to `Cc1cc(N(CCC#N)S(=O)(=O)c2ccccc2)ccc1/C=C1N=C(/C=C/c2ccccc2)OC\1=O`, the GI50 in the assay on DMS-273, in the assay on EKVX, in the assay with CAKI-1, in the assay on SK-OV-3, in the assay with HCT-116 and in the assay on TK-10 was > 100 µM (inactive) throughout. Besides, the GI50 is > 100 µM (inactive) in the assay on ACHN; > 100 µM (inactive) with HT-29; > 100 µM (inactive) in the assay with XF498; > 100 µM (inactive) in the assay on SW-620; > 100 µM with HCT-15; > 100 µM (inactive) with UACC-62. The GI50 in the assay with CCRF-CEM, in the assay on COLO 205, in the assay with SF-539 and with RXF 393 was > 100 µM (inactive) throughout.
With `CCCCCCCCCCCCCC(=O)OCC1OC(=O)CC1O` (stereo not drawn), the GI50 with DMS-273 was > 100 µM (inactive); with EKVX it was > 100 µM (inactive); in the assay with CAKI-1, 43 µM (inactive); in the assay on SK-OV-3, > 100 µM (inactive); in the assay on HCT-116 it was 44.2 µM (inactive); with TK-10, > 100 µM (inactive). Also, the GI50 in the assay with ACHN was > 100 µM (inactive); in the assay with HT-29 it was 94.4 µM (inactive); in the assay with XF498 it was > 100 µM (inactive); with SW-620, > 100 µM (inactive); in the assay on OVCAR-4, > 100 µM (inactive); in the assay on HCT-15, 25.4 µM. Further, the GI50 with UACC-62 is 94 µM (inactive); in the assay with CCRF-CEM, 42 µM (inactive); with COLO 205, > 100 µM (inactive); in the assay on SF-539, > 100 µM (inactive); with RXF 393, > 100 µM (inactive).
Turning to `S=c1sc2c(Cl)nc(Cl)nc2n1-c1ccccc1`, the GI50 in the assay with DMS-273 was 45.9 µM (inactive); in the assay on EKVX, 61 µM (inactive); in the assay with CAKI-1, > 100 µM (inactive); with SK-OV-3, > 100 µM (inactive); with HCT-116 it was 16.4 µM (inactive); in the assay with TK-10 it was > 100 µM (inactive). The GI50 with ACHN was > 100 µM (inactive); with HT-29 it was 33 µM (inactive); in the assay with XF498, 94.2 µM (inactive); in the assay on SW-620, 27.2 µM (inactive); in the assay with OVCAR-4 it was 41.3 µM (inactive); with HCT-15 it was 18.1 µM. Also, the GI50 was 14.6 µM (inactive) in the assay with UACC-62; 23.1 µM (inactive) with CCRF-CEM; > 100 µM (inactive) in the assay with COLO 205; > 100 µM (inactive) in the assay with SF-539; 21.6 µM (inactive) with RXF 393.
As for `COc1ccc(C2Oc3c(cc(O)c(OC)c3C)[C@@H]2C)cc1OC` (stereo partly drawn), the GI50 was 47.6 µM (inactive) with DMS-273; > 100 µM (inactive) in the assay on EKVX; 37.2 µM (inactive) in the assay with CAKI-1; > 100 µM (inactive) in the assay with SK-OV-3; > 100 µM (inactive) with HCT-116; > 100 µM (inactive) in the assay with TK-10. For the same molecule, the GI50 with ACHN was > 100 µM (inactive); in the assay on HT-29, > 100 µM (inactive); in the assay on XF498, 51.8 µM (inactive); in the assay on SW-620 it was 71 µM (inactive); in the assay on OVCAR-4, 42.4 µM (inactive); in the assay on HCT-15, > 10 µM. Further, the GI50 in the assay on UACC-62 is 90.2 µM (inactive); with CCRF-CEM, 78.5 µM (inactive); with COLO 205, > 100 µM (inactive); in the assay on SF-539, > 100 µM (inactive); in the assay with RXF 393 it was 27.7 µM (inactive).
